Results reported in PubChem BioAssay AID248 (DTP/NCI, 2004).
Values joined by “and” are separate entries in the source; they are usually repeats but may differ in a detail not shown here. Identical values can stand only once. Toxic doses and inconclusive results are not listed. Cut-off read from the data, not from the text of the source: active = T/C of 150% or more; inactive = T/C below 125%.

System: L1210 leukemia ip in BDF1 mice, survival T/C
Assay: NCI In Vivo Anticancer Drug Screen. Data for tumor model L1210 Leukemia (intraperitoneal) in B6D2F1 (BDF1) mice
Conditions: endpoint: mean survival time, higher = longer survival
How it was run: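 Transplanted-tumor mice were given test agent; controls received vehicle only. Survival readings from the two groups were divided (treated over control).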

[1] = dose: 100.0 mg/kg/injection, schedule: Q04DX002 (ip), vehicle: Klucel (hydroxypropylcellulose) (HPC)
[2] = dose: 200.0 mg/kg/injection, schedule: Q04DX002 (ip), vehicle: Klucel (hydroxypropylcellulose) (HPC)
[3] = dose: 100.0 mg/kg/injection, schedule: Q04DX003 (ip), vehicle: Klucel (hydroxypropylcellulose) (HPC)
[4] = dose: 200.0 mg/kg/injection, schedule: Q04DX003 (ip), vehicle: Klucel (hydroxypropylcellulose) (HPC)
[5] = dose: 400.0 mg/kg/injection, schedule: Q04DX003 (ip), vehicle: Klucel (hydroxypropylcellulose) (HPC)
[6] = dose: 100.0 mg/kg/injection, schedule: Q04DX003 (ip), vehicle: saline with Tween-80
[7] = dose: 200.0 mg/kg/injection, schedule: Q04DX003 (ip), vehicle: saline with Tween-80
[8] = dose: 400.0 mg/kg/injection, schedule: Q04DX003 (ip), vehicle: saline with Tween-80
[9] = dose: 75.0 mg/kg/injection, schedule: Q01DX001 (ip), vehicle: saline
[10] = dose: 100.0 mg/kg/injection, schedule: Q04DX003 (ip), vehicle: saline
[11] = dose: 200.0 mg/kg/injection, schedule: Q04DX003 (ip), vehicle: saline
[12] = dose: 400.0 mg/kg/injection, schedule: Q04DX003 (ip), vehicle: saline
[13] = dose: 100.0 mg/kg/injection, schedule: Q01DX009 (ip), vehicle: Klucel (hydroxypropylcellulose) (HPC)
[14] = dose: 200.0 mg/kg/injection, schedule: Q01DX009 (ip), vehicle: Klucel (hydroxypropylcellulose) (HPC)
[15] = dose: 400.0 mg/kg/injection, schedule: Q01DX009 (ip), vehicle: Klucel (hydroxypropylcellulose) (HPC)
[16] = dose: 100.0 mg/kg/injection, schedule: Q01DX009 (ip), vehicle: saline
[17] = dose: 200.0 mg/kg/injection, schedule: Q01DX009 (ip), vehicle: saline
[18] = dose: 400.0 mg/kg/injection, schedule: Q01DX009 (ip), vehicle: saline
[19] = dose: 50.0 mg/kg/injection, schedule: Q04DX002 (ip), vehicle: saline with Tween-80
[20] = dose: 150.0 mg/kg/injection, schedule: Q01DX001 (ip), vehicle: saline
[21] = dose: 300.0 mg/kg/injection, schedule: Q01DX001 (ip), vehicle: saline

Measured: T/C

O=C1NC(=S)S/C1=C\c1ccc([N+](=O)[O-])s1
inactive: [1] 90 % of control | [2] 93 % of control

COC(=O)C1C2CCc3cc(OC)ccc3C2CCC1(C)C(=O)O (configuration not stated)
inactive: [3] 95 % of control | [4] 95 % of control | [5] 91 % of control

C[N+](C)(C)c1cc2c(nn1)Nc1ccccc1S2
inactive: dose: 50.0 mg/kg/injection, schedule: Q01DX001 (ip), vehicle: saline 123 % of control | dose: 100.0 mg/kg/injection, schedule: Q01DX001 (ip), vehicle: saline 116 % of control

CC(=O)Nc1ccc(S(=O)(=O)NN)cc1
inactive: dose: 50.0 mg/kg/injection, schedule: Q01DX001 (ip), vehicle: carboxymethylcellulose (CMC) 106 % of control | dose: 100.0 mg/kg/injection, schedule: Q01DX001 (ip), vehicle: carboxymethylcellulose (CMC) 103 % of control | dose: 200.0 mg/kg/injection, schedule: Q01DX001 (ip), vehicle: carboxymethylcellulose (CMC) 92 % of control | dose: 400.0 mg/kg/injection, schedule: Q01DX001 (ip), vehicle: carboxymethylcellulose (CMC) 92 % of control

Cc1ccc(Cl)cc1NS(=O)(=O)c1ccc2ccccc2c1
inactive: dose: 100.0 mg/kg/injection, schedule: Q01DX009 (ip), vehicle: saline with Tween-80 106 % of control | [6] 96 % of control | dose: 200.0 mg/kg/injection, schedule: Q01DX009 (ip), vehicle: saline with Tween-80 96 % of control | [7] 104 % of control | dose: 400.0 mg/kg/injection, schedule: Q01DX009 (ip), vehicle: saline with Tween-80 112 % of control | [8] 91 % of control

CC([NH-])C(=O)[O-].[K+].[O]=[Co][O-] (configuration not stated)
inactive: [9] 107 % of control

NNC(=O)c1cc2ccncc2c2sc3ccccc3c12
inactive: [10] 92 % of control | [11] 88 % of control | [12] 97 % of control

CCCCCCCC(O)CCCCC (configuration not stated)
inactive: [13] 104 % of control | [3] 93 % of control | [14] 98 % of control | [4] 104 % of control | [15] 102 % of control | [5] 89 % of control

CC(C)(CNc1ccc(C(=O)O)cc1)[N+](=O)[O-]
inactive: [16] 93 % of control | [10] 95 % of control | [17] 90 % of control | [11] 98 % of control | [18] 87 % of control | [12] 90 % of control

Oc1ccc(/C=N/NC(=S)NN2CCOCC2)nc1
inactive: dose: 6.25 mg/kg/injection, schedule: Q01DX009 (ip), vehicle: saline with Tween-80 108 % of control | dose: 12.5 mg/kg/injection, schedule: Q01DX009 (ip), vehicle: saline with Tween-80 116 % of control | dose: 22.0 mg/kg/injection, schedule: Q04DX002 (ip), vehicle: saline with Tween-80 108 % of control | dose: 25.0 mg/kg/injection, schedule: Q01DX009 (ip), vehicle: saline with Tween-80 108 % of control and 119 % of control | dose: 33.0 mg/kg/injection, schedule: Q04DX002 (ip), vehicle: saline with Tween-80 101 % of control | [19] 111 % of control

O=S(=O)(O)SCCNC1CCC(NCCSS(=O)(=O)O)CC1 (configuration not stated)
inactive: [10] 105 % of control | [11] 116 % of control | [12] 114 % of control

COc1cccc(C2NC(=O)N3C(c4cccc(OC)c4)NC(=O)N23)c1 (configuration not stated)
inactive: dose: 100.0 mg/kg/injection, schedule: Q01DX009 (ip), vehicle: gum acacia 98 % of control | dose: 100.0 mg/kg/injection, schedule: Q04DX003 (ip), vehicle: gum acacia 97 % of control | dose: 200.0 mg/kg/injection, schedule: Q01DX009 (ip), vehicle: gum acacia 91 % of control | dose: 200.0 mg/kg/injection, schedule: Q04DX003 (ip), vehicle: gum acacia 95 % of control | dose: 400.0 mg/kg/injection, schedule: Q01DX009 (ip), vehicle: gum acacia 91 % of control

CC(=O)Nc1ccc2c(c1)C(=O)c1cc(F)ccc1-2
inactive: [6] 100 % of control | [7] 96 % of control | [8] 110 % of control

CC(C)C(O)c1c[nH]c(=O)[nH]c1=O (configuration not stated)
inactive: [13] 91 % of control | [14] 105 % of control | [15] 96 % of control

CCC1(C)CCC2(C)C(CCC3C2CCCC3(C)C(=O)O)C1 (configuration not stated)
inactive: dose: 12.5 mg/kg/injection, schedule: Q04DX002 (ip), vehicle: saline with Tween-80 96 % of control | dose: 25.0 mg/kg/injection, schedule: Q04DX002 (ip), vehicle: saline with Tween-80 96 % of control | [19] 89 % of control

CCCCCCCCCCCCCCCCC(O)CO (configuration not stated)
inactive: [13] 96 % of control | [14] 102 % of control | [15] 96 % of control

CSC(=NCc1ccccc1)NC1CCCCC1
inactive: dose: 12.5 mg/kg/injection, schedule: Q04DX002 (ip), vehicle: Klucel (hydroxypropylcellulose) (HPC) 100 % of control | dose: 25.0 mg/kg/injection, schedule: Q04DX002 (ip), vehicle: Klucel (hydroxypropylcellulose) (HPC) 107 % of control | dose: 50.0 mg/kg/injection, schedule: Q04DX002 (ip), vehicle: Klucel (hydroxypropylcellulose) (HPC) 107 % of control

S=C(Nc1ccc(Cl)c(Cl)c1)SCc1ccc(Cl)cc1
inactive: dose: 25.0 mg/kg/injection, schedule: Q04DX003 (ip), vehicle: saline 104 % of control | dose: 50.0 mg/kg/injection, schedule: Q04DX003 (ip), vehicle: saline 101 % of control | [10] 104 % of control

CCOC(=O)CC1c2nc3ccccc3cc2CN1C(=O)OCC (configuration not stated)
inactive: [3] 100 % of control | [4] 102 % of control | [5] 103 % of control

CSc1ncnc2c1ncn2NC(=O)C1CCC(=O)N1 (configuration not stated)
inactive: [16] 104 % of control | [3] 107 % of control | [17] 104 % of control | [4] 100 % of control | [18] 106 % of control | [5] 109 % of control

CN1N=C(c2ccccc2)CC1=O
inactive: dose: 100.0 mg/kg/injection, schedule: Q01DX001 (ip), vehicle: Klucel (hydroxypropylcellulose) (HPC) 103 % of control | dose: 200.0 mg/kg/injection, schedule: Q01DX001 (ip), vehicle: Klucel (hydroxypropylcellulose) (HPC) 108 % of control | dose: 400.0 mg/kg/injection, schedule: Q01DX001 (ip), vehicle: Klucel (hydroxypropylcellulose) (HPC) 97 % of control

CC(=O)NC(=S)Nc1ccccc1
inactive: dose: 12.5 mg/kg/injection, schedule: Q04DX003 (ip), vehicle: Klucel (hydroxypropylcellulose) (HPC) 95 % of control | dose: 25.0 mg/kg/injection, schedule: Q04DX003 (ip), vehicle: Klucel (hydroxypropylcellulose) (HPC) 117 % of control | dose: 50.0 mg/kg/injection, schedule: Q04DX003 (ip), vehicle: Klucel (hydroxypropylcellulose) (HPC) 101 % of control

CCC(=O)CC(=O)C(=O)OC
inactive: [9] 102 % of control | dose: 75.0 mg/kg/injection, schedule: Q04DX003 (ip), vehicle: saline 105 % of control | [20] 100 % of control | dose: 150.0 mg/kg/injection, schedule: Q04DX003 (ip), vehicle: saline 103 % of control | [21] 104 % of control | dose: 300.0 mg/kg/injection, schedule: Q04DX003 (ip), vehicle: saline 90 % of control

CCc1c(CBr)c(=O)[nH]c2ccccc12
inactive: dose: 100.0 mg/kg/injection, schedule: Q01DX001 (ip), vehicle: other 96 % of control

CCOC(=O)/C(C#N)=C/C(C)c1ccccc1 (configuration not stated)
inactive: [16] 108 % of control | [17] 104 % of control | [18] 95 % of control

CC(C)=NNC(=O)COCC(=O)NN=C(C)C
inactive: [13] 97 % of control | [14] 112 % of control | [15] 109 % of control

COC12CC3C4=CCOC5CC(=O)N6c7ccccc7C1(CCN2C4)C6C53 (configuration not stated)
inactive: dose: 5.0 mg/kg/injection, schedule: Q01DX001 (ip), vehicle: saline 97 % of control | dose: 10.0 mg/kg/injection, schedule: Q01DX001 (ip), vehicle: saline 97 % of control | dose: 20.0 mg/kg/injection, schedule: Q01DX001 (ip), vehicle: saline 101 % of control

C/C([O-])=C(/c1nc(-c2ccc([N+](=O)[O-])o2)no1)[n+]1cc(C)ccc1C
inactive: [1] 95 % of control | [2] 91 % of control | dose: 400.0 mg/kg/injection, schedule: Q04DX002 (ip), vehicle: Klucel (hydroxypropylcellulose) (HPC) 87 % of control

CCCCCCCCCCCCc1ccc(-c2cc(-c3ccccc3)cc(-c3ccccc3)c2)cc1
inactive: [9] 100 % of control | [20] 89 % of control | [21] 94 % of control
